Where a SMILES comes first, the peptide text is derived from it. Bridges are numbered along the chain shown (N, C = ends). Roman numbers before positions name the chains, in order. [ ]: non-standard residue; d: D form. NMeDab = CN[C@@H](CCN)C(=O)O; Tle = CC(C)(C)[C@H](N)C(=O)O; dDab = NCC[C@@H](N)C(=O)O; Nle = CCCC[C@H](N)C(=O)O; Orn = NCCC[C@H](N)C(=O)O; Dab = NCC[C@H](N)C(=O)O
What was measured:
Type in all cases: cell-based
[1] = system: human red blood cells (hRBC); test: Hemolysis of human red blood cells; details: red cells of human, 1 h, 100
In short: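 hRBC washed 3× PBS; 20% v/v, ~0.9×10^9 cells/mL final. Peptide 100 μg/mL, 1 h, 37° C., 300 rpm. Spin, supernatant diluted 8×, OD540. 0% = PBS + 0.001% acetic acid; 100% = 2.5% Triton X-100. % hemolysis = OD540 peptide/OD540 full lysis × 100.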

[2] = system: Acinetobacter baumannii 872842; details: 872842
Escherichia coli 926415 = details: 926415
[3] = system: Escherichia coli ATCC 25922; details: ATCC 25922
In short: (§1)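 CLSI broth microdilution; MH-II (cation-adjusted) + 0.002% P-80; ~10^6 CFU/mL inoculum; peptide two-fold serial dilutions; 18-20 h, 35° C; MIC = no visible growth, μg/mL.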

[4] = system: Pseudomonas aeruginosa ATCC 27853; details: ATCC 27853
In short: as §1

[5] = system: Acinetobacter baumannii DSM 30008; details: DSM 30008
In short: as §1

[6] = system: Klebsiella pneumoniae 968733; details: 968733
[7] = system: Klebsiella pneumoniae SSI #3010; details: SSI #3010
In short: as §1

Acinetobacter baumannii 872842 MIC [2] [µg/mL]	Escherichia coli 926415 MIC (Escherichia coli 926415) [µg/mL]	Escherichia coli ATCC 25922 MIC [3] [µg/mL]	Pseudomonas aeruginosa ATCC 27853 MIC [4] [µg/mL]	Acinetobacter baumannii DSM 30008 MIC [5] [µg/mL]	Klebsiella pneumoniae 968733 MIC [6] [µg/mL]	Klebsiella pneumoniae SSI #3010 MIC [7] [µg/mL]	Compound	Hemolysis at 100 μg/mL [1] [%]
0.5	0.5	0.25	0.25	0.25	0.5	0.5	CCCC[C@@H]1NC(=O)[C@@H]2CCCN2C(=O)[C@H]2CCCN2C(=O)[C@H](CO)NC(=O)[C@H](C)NC(=O)[C@H](C(C)(C)C)NC(=O)[C@H](CCN)NC(=O)[C@H](Cc2c[nH]c3ccccc23)NC(=O)[C@H](CCN)NC(=O)[C@@H](CCN)NC(=O)[C@H](CC(=O)N(C)[C@@H](CCN)C(=O)N[C@H]2CCNC(=O)[C@H]([C@@H](C)O)NC(=O)[C@H](CCN)NC(=O)[C@H](CCN)NC(=O)[C@H](CC(C)C)NC(=O)[C@@H](CC(C)C)NC(=O)[C@H](CCN)NC2=O)NC(=O)[C@H](CCN)NC(=O)[C@H](Cc2ccc(O)cc2)NC(=O)[C@H](CO)NC1=O [Ex. 73] (I: cyclo(W[Dab][Tle]AS[dP]P[Nle]SY[Dab]D[dDab][Dab]) / II: [NMeDab][Dab][Dab][dL]L[Dab][Dab]T; amide I:12-II:N; lactam II:2-II:C)	1
4	1	2	1	1	2	1	CCCC[C@@H]1NC(=O)[C@@H]2CCCN2C(=O)[C@H]2CCCN2C(=O)[C@H](CO)NC(=O)[C@H](C)NC(=O)[C@H](C(C)(C)C)NC(=O)[C@H](CCN)NC(=O)[C@H](Cc2c[nH]c3ccccc23)NC(=O)[C@H](CCN)NC(=O)[C@H](CCC(=O)N[C@@H](CCN)C(=O)N[C@H](CCN)C(=O)N[C@H]2CCNC(=O)[C@H]([C@@H](C)O)NC(=O)[C@H](CCN)NC(=O)[C@H](CCN)NC(=O)[C@H](CC(C)C)NC(=O)[C@@H](Cc3ccccc3)NC(=O)[C@H](CCN)NC2=O)NC(=O)[C@H](CCCN)NC(=O)[C@H](CCN)NC(=O)[C@H](Cc2ccc(O)cc2)NC(=O)[C@H](CO)NC1=O [Ex. 74] (I: cyclo([Nle]SY[Dab][Orn]E[Dab]W[Dab][Tle]AS[dP]P) / II: [Dab][dDab][Dab][Dab][dF]L[Dab][Dab]T; amide I:6-II:N; lactam II:3-II:C)	2
2	1	0.5	0.25	0.5	4	0.5	CCCC[C@@H]1NC(=O)[C@@H]2CCCN2C(=O)[C@H]2CCCN2C(=O)[C@H](CO)NC(=O)[C@H](C)NC(=O)[C@H](C(C)(C)C)NC(=O)[C@H](CCN)NC(=O)[C@H](Cc2c[nH]c3ccccc23)NC(=O)[C@H](CCC(=O)N[C@H](C(=O)N[C@@H](CCN)C(=O)N[C@H]2CCNC(=O)[C@H]([C@@H](C)O)NC(=O)[C@H](CCN)NC(=O)[C@H](CCN)NC(=O)[C@H](CC(C)C)NC(=O)[C@@H](Cc3ccccc3)NC(=O)[C@H](CCN)NC2=O)[C@@H](C)O)NC(=O)[C@@H](CCN)NC(=O)[C@H](CCCN)NC(=O)[C@H](CCN)NC(=O)[C@H](Cc2ccc(O)cc2)NC(=O)[C@H](CO)NC1=O [Ex. 75] (I: cyclo([Nle]SY[Dab][Orn][dDab]EW[Dab][Tle]AS[dP]P) / II: T[Dab][Dab][Dab][dF]L[Dab][Dab]T; amide I:7-II:N; lactam II:3-II:C)	<1
